The source of these data is PubChem BioAssay AID256 (DTP/NCI, 2004).

Each structure is given as a SMILES string. Values joined by “and” are separate entries in the source; they are usually repeats but may differ in a detail not shown here. Equal values may be shown once. Toxic doses and inconclusive results are not listed.

The experiment has as its system CD2F1 mice, L1210 leukemia ip, survival T/C. Description: NCI In Vivo Anticancer Drug Screen. Data for tumor model L1210 Leukemia (intraperitoneal) in CD2F1 (CDF1) mice. As to conditions: endpoint: mean survival time, higher = longer survival. The essentials: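 Read-out first: treated-group measurement over vehicle-control measurement, expressed as a ratio. Animals bore a transplanted tumor line and were dosed with compound or vehicle.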

Where [1] appears, read: dose: 100.0 mg/kg/injection, schedule: Q01DX001 (ip), vehicle: Klucel (hydroxypropylcellulose) (HPC).
Setting [2] is: dose: 200.0 mg/kg/injection, schedule: Q01DX001 (ip), vehicle: Klucel (hydroxypropylcellulose) (HPC).
Where [3] appears, read: dose: 400.0 mg/kg/injection, schedule: Q01DX001 (ip), vehicle: Klucel (hydroxypropylcellulose) (HPC).
[4] abbreviates: dose: 50.0 mg/kg/injection, schedule: Q01DX009 (ip), vehicle: saline with Tween-80.
Where [5] appears, read: dose: 100.0 mg/kg/injection, schedule: Q01DX009 (ip), vehicle: saline with Tween-80.
The mark [6] stands for this setting: dose: 200.0 mg/kg/injection, schedule: Q01DX009 (ip), vehicle: saline with Tween-80.
Where [7] appears, read: dose: 400.0 mg/kg/injection, schedule: Q01DX009 (ip), vehicle: saline with Tween-80.
Setting [8] is: dose: 25.0 mg/kg/injection, schedule: Q04DX002 (ip), vehicle: saline with Tween-80.
The mark [9] stands for this setting: dose: 50.0 mg/kg/injection, schedule: Q04DX002 (ip), vehicle: saline with Tween-80.
[10] abbreviates: dose: 100.0 mg/kg/injection, schedule: Q04DX002 (ip), vehicle: saline with Tween-80.
The mark [11] stands for this setting: dose: 100.0 mg/kg/injection, schedule: Q04DX003 (ip), vehicle: other.
The mark [12] stands for this setting: dose: 100.0 mg/kg/injection, schedule: Q04DX003 (ip), vehicle: saline with Tween-80.
The mark [13] stands for this setting: dose: 200.0 mg/kg/injection, schedule: Q04DX003 (ip), vehicle: saline with Tween-80.
Setting [14] is: dose: 400.0 mg/kg/injection, schedule: Q04DX003 (ip), vehicle: saline with Tween-80.
[15] abbreviates: dose: 25.0 mg/kg/injection, schedule: Q01DX009 (ip), vehicle: saline with Tween-80.

Take `Clc1ccc(/C=N/N=C/c2ccc(Cl)cc2Cl)c(Cl)c1`: the T/C is 95 % of control under setting [1], 89 % of control under setting [2] and 103 % of control under setting [3].

As for `CCCCCCCCC(=O)N(C)OC`, the T/C is 102 % of control under setting [4] and 104 % of control under setting [5].

`CCCCNc1ncnc2snnc12`: the T/C under setting [1] was 101 % of control, the T/C under setting [2] is 98 % of control and the T/C under setting [3] is 104 % of control.

In the case of `CNC1CCCCCC1`, the T/C runs as follows: (dose: 75.0 mg/kg/injection, schedule: Q01DX001 (ip), vehicle: saline) 101 % of control; (dose: 150.0 mg/kg/injection, schedule: Q01DX001 (ip), vehicle: saline) 101 % of control.

Regarding `O=C(N/N=C/c1ccc([N+](=O)[O-])o1)c1ccccc1N=Cc1ccc([N+](=O)[O-])o1`, the T/C under setting [5] is 96 % of control, the T/C under setting [6] was 98 % of control and the T/C under setting [7] was 104 % of control.

`CNc1c(C)cc(C)c(NC)c1C`: the T/C under setting [8] was 104 % of control, the T/C under setting [9] was 96 % of control and the T/C under setting [10] is 116 % of control.

Consider `S=P(c1ccccc1)(N1CC1)N1CC1`, for which the T/C was 102 % of control (dose: 6.25 mg/kg/injection, schedule: Q01DX009 (ip), vehicle: Klucel (hydroxypropylcellulose) (HPC)); 95 % of control (dose: 6.25 mg/kg/injection, schedule: Q01DX009 (ip), vehicle: other); 102 % of control (dose: 12.5 mg/kg/injection, schedule: Q01DX009 (ip), vehicle: Klucel (hydroxypropylcellulose) (HPC)); 118 % of control and 104 % of control (dose: 12.5 mg/kg/injection, schedule: Q01DX009 (ip), vehicle: other); 115 % of control (dose: 22.0 mg/kg/injection, schedule: Q01DX009 (ip), vehicle: other); 104 % of control (dose: 25.0 mg/kg/injection, schedule: Q01DX009 (ip), vehicle: Klucel (hydroxypropylcellulose) (HPC)). The T/C was 106 % of control (dose: 25.0 mg/kg/injection, schedule: Q01DX009 (ip), vehicle: other); 96 % of control under setting [8]; 97 % of control (dose: 44.0 mg/kg/injection, schedule: Q04DX002 (ip), vehicle: other); 106 % of control (dose: 44.0 mg/kg/injection, schedule: Q04DX003 (ip), vehicle: other); 118 % of control (dose: 50.0 mg/kg/injection, schedule: Q01DX009 (ip), vehicle: Klucel (hydroxypropylcellulose) (HPC)); 123 % of control (dose: 50.0 mg/kg/injection, schedule: Q01DX009 (ip), vehicle: other). In addition, the T/C under setting [9] was 103 % of control and 106 % of control; the T/C (dose: 66.0 mg/kg/injection, schedule: Q04DX002 (ip), vehicle: other) was 109 % of control; the T/C (dose: 66.0 mg/kg/injection, schedule: Q04DX003 (ip), vehicle: other) was 118 % of control; the T/C (dose: 75.0 mg/kg/injection, schedule: Q01DX009 (ip), vehicle: other) is 101 % of control; the T/C (dose: 100.0 mg/kg/injection, schedule: Q04DX002 (ip), vehicle: other) was 115 % of control; the T/C under setting [10] was 117 % of control. Also, the T/C runs as follows: under setting [11], 108 % of control; (dose: 118.0 mg/kg/injection, schedule: Q01DX001 (ip), vehicle: other) 100 % of control; (dose: 150.0 mg/kg/injection, schedule: Q04DX002 (ip), vehicle: other) 103 % of control; (dose: 178.0 mg/kg/injection, schedule: Q01DX001 (ip), vehicle: other) 97 % of control; (dose: 266.0 mg/kg/injection, schedule: Q01DX001 (ip), vehicle: other) 109 % of control; (dose: 400.0 mg/kg/injection, schedule: Q01DX001 (ip), vehicle: other) 100 % of control.

As for `O=C(O)C1CCC=CCC1`, the T/C is 103 % of control under setting [11]; 94 % of control (dose: 200.0 mg/kg/injection, schedule: Q04DX003 (ip), vehicle: other); 89 % of control (dose: 400.0 mg/kg/injection, schedule: Q04DX003 (ip), vehicle: other).

As to `C[n+]1ccc(Nc2ccc(NC(=O)c3ccc(Nc4cc[n+](C)c5ccc([N+](=O)[O-])cc45)cc3)cc2)cc1`, the T/C reads like this: (dose: 1.0 mg/kg/injection, schedule: Q01DX009 (ip), vehicle: water) 103 % of control; (dose: 2.0 mg/kg/injection, schedule: Q01DX009 (ip), vehicle: water) 110 % of control; (dose: 4.0 mg/kg/injection, schedule: Q01DX009 (ip), vehicle: water) 116 % of control; (dose: 16.0 mg/kg/injection, schedule: Q01DX009 (ip), vehicle: water) 174 % of control; (dose: 32.0 mg/kg/injection, schedule: Q01DX009 (ip), vehicle: water) 223 % of control; (dose: 50.0 mg/kg/injection, schedule: Q04DX003 (ip), vehicle: saline) 162 % of control. For the same compound, the T/C (dose: 100.0 mg/kg/injection, schedule: Q04DX003 (ip), vehicle: saline) is 186 % of control and the T/C (dose: 200.0 mg/kg/injection, schedule: Q04DX003 (ip), vehicle: saline) was 201 % of control.

On to `COC(=O)c1ccccc1C=C(c1ccc([N+](=O)[O-])cc1)c1ccc([N+](=O)[O-])cc1`, for which the T/C is, setting by setting: under setting [5], 93 % of control; under setting [12], 94 % of control; under setting [6], 93 % of control; under setting [13], 96 % of control; under setting [14], 88 % of control.

For `O=C(O)c1ccccc1C(Br)C(Br)c1ccccc1` (stereo unspecified), the T/C reads like this: under setting [12], 101 % of control; under setting [13], 98 % of control; under setting [14], 106 % of control.

On to `CCOC(=O)c1ccc(N(CC)CC)cc1`, for which the T/C is 95 % of control under setting [5]; 104 % of control under setting [12]; 92 % of control under setting [6]; 98 % of control under setting [13]; 95 % of control under setting [7]; 94 % of control under setting [14].

Regarding `C[Si](C)(C)O/C=C1/CCOC1=O`, the T/C runs as follows: (dose: 12.5 mg/kg/injection, schedule: Q01DX009 (ip), vehicle: saline) 97 % of control and 107 % of control; (dose: 25.0 mg/kg/injection, schedule: Q01DX009 (ip), vehicle: saline) 106 % of control and 108 % of control; (dose: 50.0 mg/kg/injection, schedule: Q01DX009 (ip), vehicle: saline) 103 % of control and 104 % of control; (dose: 100.0 mg/kg/injection, schedule: Q01DX009 (ip), vehicle: saline) 104 % of control and 106 % of control; (dose: 200.0 mg/kg/injection, schedule: Q01DX009 (ip), vehicle: saline) 105 % of control and 112 % of control; (dose: 400.0 mg/kg/injection, schedule: Q01DX009 (ip), vehicle: saline) 113 % of control and 112 % of control.

Regarding `CC1(CBr)Oc2ccccc2O1`, the T/C reads like this: (dose: 100.0 mg/kg/injection, schedule: Q04DX003 (ip), vehicle: Klucel (hydroxypropylcellulose) (HPC)) 97 % of control; (dose: 200.0 mg/kg/injection, schedule: Q04DX003 (ip), vehicle: Klucel (hydroxypropylcellulose) (HPC)) 88 % of control; (dose: 400.0 mg/kg/injection, schedule: Q04DX003 (ip), vehicle: Klucel (hydroxypropylcellulose) (HPC)) 94 % of control.

In the case of `CNC(C)COc1ccccc1` (stereo unspecified), the T/C under setting [12] was 86 % of control.

Consider `CCCCCCCCCC1=NC(C)(C)CN1CC(C)O` (stereo unspecified), for which the T/C is, setting by setting: (dose: 5.0 mg/kg/injection, schedule: Q01DX009 (ip), vehicle: saline with Tween-80) 91 % of control; (dose: 10.0 mg/kg/injection, schedule: Q01DX009 (ip), vehicle: saline with Tween-80) 102 % of control; (dose: 20.0 mg/kg/injection, schedule: Q01DX009 (ip), vehicle: saline with Tween-80) 91 % of control.

With `Nc1ccc2nc3ccc(N)cc3[n+](-c3ccccc3)c2c1`, the T/C reads like this: (dose: 6.0 mg/kg/injection, schedule: Q01DX009 (ip), vehicle: saline) 105 % of control; (dose: 8.0 mg/kg/injection, schedule: Q01DX009 (ip), vehicle: saline) 105 % of control; (dose: 12.0 mg/kg/injection, schedule: Q01DX009 (ip), vehicle: saline) 110 % of control.

Turning to `CC1(C)Oc2ccccc2O1`, the T/C is 106 % of control under setting [15], 102 % of control under setting [4] and 93 % of control under setting [5].

As for `O=C(Cc1ccccc1)C(Br)C(Br)c1ccccc1` (stereo unspecified), the T/C was 107 % of control under setting [15] and 92 % of control under setting [12].
